Results published in ChEMBL document CHEMBL5647694, “Novel orally bioavailable EZH1/2 dual inhibitors with greater antitumor efficacy than an EZH2 selective inhibitor” (Cancer Sci, 2017).
Active and inactive are the calls of the source. No cut-off for these calls is given here.

Key:
[1] = Cmax in Crl:CD Sprague-Dawley rat at 100 mg/kg, po administered daily for 14 days by LC/MS/MS analysis; type: ADME, organism-based; settings: in vivo, 336 h, time 14 day
KARPAS-422 [2] = assay: Antitumor activity against human KARPAS-422 cells xenografted in CB17/Icr-Prkdcscid/CrlCrlj mouse assessed as inhibition of tumor growth at 50 mg/kg, po BID for 14 days; type: functional, organism-based; settings: time 14.0 day
KARPAS-422 [3] = assay: Antitumor activity against human KARPAS-422 cells xenografted in CB17/Icr-Prkdcscid/CrlCrlj mouse assessed as inhibition of tumor growth administered orally BID for 14 days; type: functional, cell-based; settings: dose 3.1-50 mg/kg, route po, time 14.0 day
[4] = Toxicity in Crl:CD Sprague-Dawley rat assessed as creatine kinase level in blood at 100 mg/kg, po administered daily for 14 days (reference value: 164 +/-5U/L); type: organism-based; settings: in vivo, 336 h, time 14 day
Mus musculus = assay: In vivo inhibition of EZH1/2 in CB17/Icr-Prkdcscid/CrlCrlj mouse xenografted with human KARPAS-422 cells assessed as decrease in H3K27me3 level in tumor at 3.1 to 50 mg/kg, po BID for 14 days and measured 1 day after cessation of drug dosing; type: functional, organism-based; settings: dose 3.1-50 mg/kg, time 14.0 day
[5] = target: Serine/threonine-protein kinase Nek9 (Homo sapiens) (UniProt Q8TD19); assay: Inhibition of N-terminal GST-fused truncated human NEK9 (1 to 346, 733 to 979 residues) expressed in baculovirus expression system using CDK7 peptide as substrate at 1 uM in presence of ATP by Mobility shift assay
Chain of Serine/threonine-protein kinase Nek9 (Homo sapiens) (Q8TD19 whole entry, the tested form may be a part): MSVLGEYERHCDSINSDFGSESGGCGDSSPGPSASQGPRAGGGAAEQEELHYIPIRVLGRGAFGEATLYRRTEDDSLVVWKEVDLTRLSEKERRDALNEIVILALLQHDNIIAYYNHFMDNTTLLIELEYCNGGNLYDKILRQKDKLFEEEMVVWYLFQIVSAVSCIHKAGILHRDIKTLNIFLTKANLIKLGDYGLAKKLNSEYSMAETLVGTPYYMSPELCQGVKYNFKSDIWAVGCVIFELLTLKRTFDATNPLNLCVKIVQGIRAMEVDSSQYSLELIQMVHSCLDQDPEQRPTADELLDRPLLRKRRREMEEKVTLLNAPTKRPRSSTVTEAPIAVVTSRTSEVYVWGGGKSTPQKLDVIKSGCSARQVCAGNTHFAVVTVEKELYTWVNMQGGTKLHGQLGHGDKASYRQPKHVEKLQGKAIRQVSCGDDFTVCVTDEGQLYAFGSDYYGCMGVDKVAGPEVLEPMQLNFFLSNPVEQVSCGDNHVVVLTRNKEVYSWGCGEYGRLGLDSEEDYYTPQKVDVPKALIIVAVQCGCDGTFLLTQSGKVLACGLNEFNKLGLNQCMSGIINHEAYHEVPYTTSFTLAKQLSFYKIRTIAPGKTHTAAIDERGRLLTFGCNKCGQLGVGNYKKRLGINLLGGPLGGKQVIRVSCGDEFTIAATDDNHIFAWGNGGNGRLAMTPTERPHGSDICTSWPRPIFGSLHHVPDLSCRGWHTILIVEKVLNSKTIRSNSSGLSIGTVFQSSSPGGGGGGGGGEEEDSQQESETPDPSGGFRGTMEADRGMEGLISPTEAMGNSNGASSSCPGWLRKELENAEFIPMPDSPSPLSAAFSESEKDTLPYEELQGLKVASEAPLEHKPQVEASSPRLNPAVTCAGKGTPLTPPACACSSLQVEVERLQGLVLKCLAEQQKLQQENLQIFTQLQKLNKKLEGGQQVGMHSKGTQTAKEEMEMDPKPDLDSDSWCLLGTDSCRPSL

[6] = Toxicity in Crl:CD Sprague-Dawley rat assessed as neutrophil count in blood at 100 mg/kg, po administered daily for 14 days (reference value: 1.73+/-0.276 10^3/uL); type: organism-based; settings: in vivo, 336 h, time 14 day
[7] = Toxicity in Crl:CD Sprague-Dawley rat assessed as hematocrit level in blood at 100 mg/kg, po administered daily for 14 days (reference value: 41.2 +/-[…]); type: organism-based; settings: in vivo, 336 h, time 14 day
[8] = target: Serine/threonine-protein kinase 24 (Homo sapiens) (UniProt Q9Y6E0); assay: Inhibition of N-terminal GST-fused full length human MST3 (1 to 431 residues) expressed in baculovirus expression system using Moesin-derived peptide as substrate at 1 uM in presence of ATP by Mobility shift assay
Chain of Serine/threonine-protein kinase 24 (Homo sapiens) (Q9Y6E0 whole entry, looked up, the tested form may be a part): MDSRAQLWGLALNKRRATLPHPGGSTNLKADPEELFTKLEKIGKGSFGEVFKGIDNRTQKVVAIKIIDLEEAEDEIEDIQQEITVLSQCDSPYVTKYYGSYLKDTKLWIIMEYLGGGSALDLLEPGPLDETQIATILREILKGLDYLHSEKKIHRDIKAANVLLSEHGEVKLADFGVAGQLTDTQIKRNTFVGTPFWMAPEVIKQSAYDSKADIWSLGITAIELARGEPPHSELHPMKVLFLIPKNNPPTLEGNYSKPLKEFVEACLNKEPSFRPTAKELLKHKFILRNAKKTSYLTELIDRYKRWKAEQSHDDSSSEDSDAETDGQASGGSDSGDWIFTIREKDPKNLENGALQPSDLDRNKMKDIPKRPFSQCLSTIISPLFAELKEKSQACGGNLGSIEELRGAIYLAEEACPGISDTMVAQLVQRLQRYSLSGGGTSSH

[9] = Toxicity in Crl:CD Sprague-Dawley rat assessed as lymphocyte count in blood at 100 mg/kg, po administered daily for 14 days (reference value: 7.37+/-1.6 10^3/uL); type: organism-based; settings: in vivo, 336 h, time 14 day
MKN-1 = assay: Antitumor activity against human MKN-1 cells assessed as cell growth inhibition treated for 10 to 15 days; type: functional; settings: time 10-15 day
[10] = Antitumor activity against human COV504 cells assessed as cell growth inhibition treated for 10 to 15 days; type: functional; settings: time 10-15 day
H9 = assay: Antitumor activity against human H9 cells assessed as cell growth inhibition treated for 10 to 15 days; type: functional; settings: time 10-15 day
[11] = Antitumor activity against human HCC202 cells assessed as cell growth inhibition treated for 10 to 15 days; type: functional; settings: time 10-15 day
GA-10 = assay: Antitumor activity against human GA-10 cells assessed as cell growth inhibition treated for 10 to 15 days; type: functional; settings: time 10-15 day
NB-4 = assay: Antitumor activity against human NB-4 cells assessed as cell growth inhibition treated for 10 to 15 days; type: functional; settings: time 10-15 day
[12] = target: Protein arginine N-methyltransferase 1 (Homo sapiens, UniProt Q99873); assay: Inhibition of human PRMT1 using Histone H4 and [3H]SAM as substrate incubated for 30 mins to 1 hr by HotSpot kinase assay
Chain of Protein arginine N-methyltransferase 1 (Q99873 whole entry): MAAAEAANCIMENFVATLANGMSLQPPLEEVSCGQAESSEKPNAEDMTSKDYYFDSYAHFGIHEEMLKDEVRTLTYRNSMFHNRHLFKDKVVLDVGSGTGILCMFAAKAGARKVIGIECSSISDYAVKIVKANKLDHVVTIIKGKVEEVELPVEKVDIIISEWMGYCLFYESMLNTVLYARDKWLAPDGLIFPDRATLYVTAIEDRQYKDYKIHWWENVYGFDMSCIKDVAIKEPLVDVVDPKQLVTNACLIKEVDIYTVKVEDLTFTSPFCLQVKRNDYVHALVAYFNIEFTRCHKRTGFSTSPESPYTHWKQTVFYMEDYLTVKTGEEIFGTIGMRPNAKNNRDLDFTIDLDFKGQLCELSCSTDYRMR

KMS-11 = assay: Antitumor activity against human KMS-11 cells assessed as cell growth inhibition treated for 10 to 15 days; type: functional; settings: time 10-15 day
[13] = target: Histone-lysine N-methyltransferase SETD1B (Homo sapiens, UniProt Q9UPS6); assay: Inhibition of human SET1B using Core Histone and [3H]SAM as substrate incubated for 30 mins to 1 hr by HotSpot kinase assay
Chain of Histone-lysine N-methyltransferase SETD1B (Q9UPS6 whole entry): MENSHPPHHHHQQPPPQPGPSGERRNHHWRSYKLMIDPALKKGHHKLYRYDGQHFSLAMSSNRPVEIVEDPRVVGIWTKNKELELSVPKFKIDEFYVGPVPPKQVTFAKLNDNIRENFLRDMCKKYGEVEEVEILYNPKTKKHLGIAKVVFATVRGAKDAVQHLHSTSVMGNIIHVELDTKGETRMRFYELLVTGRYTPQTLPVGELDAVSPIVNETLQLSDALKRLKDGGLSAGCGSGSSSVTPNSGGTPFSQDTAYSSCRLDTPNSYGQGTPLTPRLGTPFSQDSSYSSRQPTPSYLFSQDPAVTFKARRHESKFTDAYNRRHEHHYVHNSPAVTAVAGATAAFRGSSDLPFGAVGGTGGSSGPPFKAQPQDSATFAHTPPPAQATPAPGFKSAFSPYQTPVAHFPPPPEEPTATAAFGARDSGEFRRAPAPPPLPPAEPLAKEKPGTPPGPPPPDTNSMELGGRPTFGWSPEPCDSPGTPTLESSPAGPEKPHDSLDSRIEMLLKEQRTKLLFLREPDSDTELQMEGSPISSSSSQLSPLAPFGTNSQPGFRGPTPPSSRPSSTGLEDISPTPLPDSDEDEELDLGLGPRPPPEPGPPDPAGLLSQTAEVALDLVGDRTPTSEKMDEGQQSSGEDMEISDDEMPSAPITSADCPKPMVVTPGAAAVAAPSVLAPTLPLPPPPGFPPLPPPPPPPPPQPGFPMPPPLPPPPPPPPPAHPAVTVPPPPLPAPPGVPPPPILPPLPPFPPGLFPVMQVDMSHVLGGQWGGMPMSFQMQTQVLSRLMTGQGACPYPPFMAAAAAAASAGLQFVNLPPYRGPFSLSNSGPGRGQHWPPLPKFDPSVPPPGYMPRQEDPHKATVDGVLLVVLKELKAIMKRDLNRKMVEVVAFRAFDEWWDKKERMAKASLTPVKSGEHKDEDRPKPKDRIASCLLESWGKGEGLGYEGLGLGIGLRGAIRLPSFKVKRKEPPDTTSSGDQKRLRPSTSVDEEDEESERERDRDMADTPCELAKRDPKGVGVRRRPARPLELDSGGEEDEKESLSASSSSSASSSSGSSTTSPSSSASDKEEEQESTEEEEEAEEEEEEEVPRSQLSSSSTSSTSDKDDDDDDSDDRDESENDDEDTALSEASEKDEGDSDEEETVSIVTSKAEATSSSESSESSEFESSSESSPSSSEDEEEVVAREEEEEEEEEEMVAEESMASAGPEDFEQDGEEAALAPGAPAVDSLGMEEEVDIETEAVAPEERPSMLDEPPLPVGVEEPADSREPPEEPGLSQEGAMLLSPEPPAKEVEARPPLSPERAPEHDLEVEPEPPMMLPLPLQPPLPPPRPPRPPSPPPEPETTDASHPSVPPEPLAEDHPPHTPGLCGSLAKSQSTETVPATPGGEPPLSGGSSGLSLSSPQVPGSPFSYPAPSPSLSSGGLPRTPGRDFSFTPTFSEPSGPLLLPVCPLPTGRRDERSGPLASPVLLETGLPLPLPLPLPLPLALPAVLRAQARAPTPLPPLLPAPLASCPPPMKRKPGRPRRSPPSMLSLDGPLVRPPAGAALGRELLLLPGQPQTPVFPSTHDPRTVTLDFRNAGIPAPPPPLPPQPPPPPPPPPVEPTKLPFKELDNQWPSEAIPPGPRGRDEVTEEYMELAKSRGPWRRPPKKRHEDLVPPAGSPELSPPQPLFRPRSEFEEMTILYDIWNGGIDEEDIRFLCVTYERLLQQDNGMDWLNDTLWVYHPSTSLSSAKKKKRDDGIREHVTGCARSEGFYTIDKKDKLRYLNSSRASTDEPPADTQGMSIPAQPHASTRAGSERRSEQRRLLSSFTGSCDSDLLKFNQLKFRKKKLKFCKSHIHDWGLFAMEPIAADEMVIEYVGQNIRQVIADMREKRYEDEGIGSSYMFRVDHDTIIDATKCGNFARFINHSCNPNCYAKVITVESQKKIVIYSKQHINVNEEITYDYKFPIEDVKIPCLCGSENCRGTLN

SNU1 = assay: Antitumor activity against human SNU1 cells assessed as cell growth inhibition treated for 10 to 15 days; type: functional; settings: time 10-15 day
HL-60 = assay: Antitumor activity against human HL-60 cells assessed as cell growth inhibition treated for 10 to 15 days; type: functional; settings: time 10-15 day
MKN-7 = assay: Antitumor activity against human MKN-7 cells assessed as cell growth inhibition treated for 10 to 15 days; type: functional; settings: time 10-15 day
HCC1395 = assay: Antitumor activity against human HCC1395 cells assessed as cell growth inhibition treated for 10 to 15 days; type: functional; settings: time 10-15 day
TALL-1 = assay: Antitumor activity against human TALL-1 cells assessed as cell growth inhibition treated for 10 to 15 days; type: functional; settings: time 10-15 day
DU-145 = assay: Antitumor activity against human DU-145 cells assessed as cell growth inhibition treated for 10 to 15 days; type: functional; settings: time 10-15 day
SK-N-MC = assay: Antitumor activity against human SK-N-MC cells assessed as cell growth inhibition treated for 10 to 15 days; type: functional; settings: time 10-15 day
RPMI-6666 = assay: Antitumor activity against human RPMI-6666 cells assessed as cell growth inhibition treated for 10 to 15 days; type: functional; settings: time 10-15 day
[14] = target: N-lysine methyltransferase KMT5A (Homo sapiens, UniProt Q9NQR1); assay: Inhibition of human SET8 using Nucleosomes and [3H]SAM as substrate incubated for 30 mins to 1 hr by HotSpot kinase assay
Chain of N-lysine methyltransferase KMT5A (Q9NQR1 whole entry): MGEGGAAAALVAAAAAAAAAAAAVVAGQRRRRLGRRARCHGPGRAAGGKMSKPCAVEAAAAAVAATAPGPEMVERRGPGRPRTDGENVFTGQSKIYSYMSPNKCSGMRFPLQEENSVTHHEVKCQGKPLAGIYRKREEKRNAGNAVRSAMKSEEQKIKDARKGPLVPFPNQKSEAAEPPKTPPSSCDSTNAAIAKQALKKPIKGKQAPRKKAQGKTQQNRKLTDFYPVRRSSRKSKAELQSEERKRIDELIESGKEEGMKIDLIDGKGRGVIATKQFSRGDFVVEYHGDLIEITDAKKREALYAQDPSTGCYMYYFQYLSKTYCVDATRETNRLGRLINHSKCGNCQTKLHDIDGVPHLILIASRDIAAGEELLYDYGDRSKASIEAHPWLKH

Z-138 = assay: Antitumor activity against human Z138 cells assessed as cell growth inhibition treated for 10 to 15 days; type: functional; settings: time 10-15 day
LOUCY = assay: Antitumor activity against human LOUCY cells assessed as cell growth inhibition treated for 10 to 15 days; type: functional; settings: time 10-15 day
NCI-H929 = assay: Antitumor activity against human NCI-H929 cells assessed as cell growth inhibition treated for 10 to 15 days; type: functional; settings: time 10-15 day
NAMALVA = assay: Antitumor activity against human NAMALVA cells assessed as cell growth inhibition treated for 10 to 15 days; type: functional; settings: time 10-15 day
[15] = target: Histone-lysine N-methyltransferase EHMT1 (Homo sapiens, UniProt Q9H9B1); assay: Inhibition of human GLP using Histone H3 (1-21 residues) and [3H]SAM as substrate incubated for 30 mins to 1 hr by HotSpot kinase assay
[16] = Antitumor activity against human OVISE cells assessed as cell growth inhibition treated for 10 to 15 days; type: functional; settings: time 10-15 day
[17] = target: DNA (cytosine-5)-methyltransferase 3A (Homo sapiens, UniProt Q9Y6K1); assay: Inhibition of human DNMT3a using lambda DNA and [3H]SAM as substrate incubated for 30 mins to 1 hr by HotSpot kinase assay
Chain of DNA (cytosine-5)-methyltransferase 3A (Q9Y6K1 whole entry, looked up): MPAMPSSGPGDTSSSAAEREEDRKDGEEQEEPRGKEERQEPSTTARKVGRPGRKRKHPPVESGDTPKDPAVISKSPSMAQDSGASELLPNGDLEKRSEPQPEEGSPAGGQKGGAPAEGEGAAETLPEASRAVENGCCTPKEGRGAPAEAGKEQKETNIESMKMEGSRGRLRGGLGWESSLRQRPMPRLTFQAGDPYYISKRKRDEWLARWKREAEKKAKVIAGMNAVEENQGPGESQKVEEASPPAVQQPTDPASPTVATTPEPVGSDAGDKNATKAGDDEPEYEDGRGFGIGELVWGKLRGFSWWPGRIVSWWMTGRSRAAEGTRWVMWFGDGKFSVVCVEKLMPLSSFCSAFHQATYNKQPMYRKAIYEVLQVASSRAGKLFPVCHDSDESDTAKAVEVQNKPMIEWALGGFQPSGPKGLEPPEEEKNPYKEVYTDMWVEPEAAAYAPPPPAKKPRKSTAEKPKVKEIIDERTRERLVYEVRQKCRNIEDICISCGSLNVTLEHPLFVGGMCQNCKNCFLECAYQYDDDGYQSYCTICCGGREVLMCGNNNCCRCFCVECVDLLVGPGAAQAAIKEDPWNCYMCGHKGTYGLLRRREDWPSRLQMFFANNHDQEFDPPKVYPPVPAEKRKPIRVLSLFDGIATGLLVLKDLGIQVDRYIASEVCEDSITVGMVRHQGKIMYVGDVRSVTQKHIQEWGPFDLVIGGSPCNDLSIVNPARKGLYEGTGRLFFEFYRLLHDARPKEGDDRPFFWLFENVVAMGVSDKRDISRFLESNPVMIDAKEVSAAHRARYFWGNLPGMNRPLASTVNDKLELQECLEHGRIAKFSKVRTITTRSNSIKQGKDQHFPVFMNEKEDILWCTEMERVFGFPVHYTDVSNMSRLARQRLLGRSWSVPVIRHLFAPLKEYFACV

PC-3 = assay: Antitumor activity against human PC-3 cells assessed as cell growth inhibition treated for 10 to 15 days; type: functional; settings: time 10-15 day
[18] = Antitumor activity against human RDES cells assessed as cell growth inhibition treated for 10 to 15 days; type: functional; settings: RD-ES, time 10-15 day
MDA-MB-436 = assay: Antitumor activity against human MDA-MB-436 cells assessed as cell growth inhibition treated for 10 to 15 days; type: functional; settings: time 10-15 day
CEM/C2 = assay: Antitumor activity against human CEM/C2 cells assessed as cell growth inhibition treated for 10 to 15 days; type: functional; settings: time 10-15 day
OCI-LY19 = assay: Antitumor activity against human OCILY19 cells assessed as cell growth inhibition treated for 10 to 15 days; type: functional; settings: time 10-15 day

Structure (SMILES): Cc1cc(C)c(CNC(=O)c2cc(Br)c3c(c2C)O[C@@](C)([C@H]2CC[C@H](N(C)C)CC2)O3)c(=O)[nH]1
- Cmax [1]: 2440 nM
- Activity (KARPAS-422 [2]): Active
- Activity (KARPAS-422 [3]): Dose-Dependent Effect
- Activity [4]: 186 U/L
- inhibition (Mus musculus): Active
- inhibition [5]: -3.3%
- Activity [6]: 0.583 10^3 /uL
- Activity [7]: 40.1%
- inhibition [8]: -6.2%
- Activity [9]: 3.67 10^3 /uL

Structure (SMILES): Cc1cc(C)c(CNC(=O)c2cc(Cl)c3c(c2C)O[C@@](C)([C@H]2CC[C@H](N(C)C)CC2)O3)c(=O)[nH]1 [VALEMETOSTAT]
- GI50 (MKN-1): > 1 µM
- GI50 [10]: 0.317 µM
- GI50 (H9): 0.00958 µM
- GI50 [11]: > 1 µM
- GI50 (GA-10): 0.0149 µM
- GI50 (NB-4): > 1 µM
- IC50 [12]: 100 µM
- GI50 (KMS-11): 0.0103 µM
- IC50 [13]: 100 µM
- GI50 (SNU1): > 1 µM
- GI50 (HL-60): > 1 µM
- GI50 (MKN-7): > 1 µM
- GI50 (HCC1395): > 1 µM
- GI50 (TALL-1): > 1 µM
- GI50 (DU-145): > 1 µM
- GI50 (SK-N-MC): > 1 µM
- GI50 (RPMI-6666): 0.0684 µM
- IC50 [14]: 100 µM
- GI50 (Z-138): 0.0191 µM
- GI50 (LOUCY): > 1 µM
- inhibition [5]: -1.9%
- GI50 (NCI-H929): > 1 µM
- GI50 (NAMALVA): > 1 µM
- inhibition [8]: -1.9%
- IC50 [15]: 100 µM
- GI50 [16]: > 1 µM
- IC50 [17]: 100 µM
- GI50 (PC-3): > 1 µM
- GI50 [18]: > 1 µM
- GI50 (MDA-MB-436): > 1 µM
- GI50 (CEM/C2): > 1 µM
- GI50 (OCI-LY19): > 1 µM
